Test results as given in patent publication US8889354B2, “Methods for the identification, assessment, and treatment of patients with cancer therapy” (Millennium Pharmaceuticals, Inc., priority 2005, dated 2014).
Like-named read-outs stand apart in the source and are kept apart here.

Key:
multiple myeloma [1] = assay: Response of the pharmacogenomic patient subset (studies 024, 025, 039, 040), EBMT criteria; format: in vivo, human; details: for NP, number of patients classified as progression / NR, number of patients classified as responder / NS, number of patients classified as stable disease: best response, discovery samples
Experimental: Patients assigned to the high-dose dexamethasone group received treatment for a maximum of 280 days. Patients in this treatment group received up to four 5-week treatment cycles, followed by up to five 4-week treatment cycles. Within each 5-week treatment cycle, the patient received dexamethasone 40 mg/day PO, once daily on Days 1 to 4, 9 to 12, and 17 to 20 of a 35-day cycle. Within each 4-week treatment cycle, the patient received dexamethasone 40 mg/day PO once daily on Days 1 to 4 of a 28 day cycle.
Pharmacogenomic tumor samples (bone marrow aspirate) were collected from patients for evaluation of the expression of global mRNA levels.
For those patients who participated in the pharmacogenomic portion of the study, correlation between RNA expression levels and response to therapy were evaluated descriptively. In addition, duration of response, time to disease progression, quality of life, and overall patient survival may be analyzed using RNA expression as a factor.
A total of 224 patient samples were assessed for pharmacogenomic analyses. […] All pharmacogenomic analyses relied on the European Group for Blood and Marrow Transplant (EBMT) criteria of response category.
The data set consisted of discovery samples matched with the patient's outcome as measured by best response and time to disease progression. For best response, each patient was classified as responder (NR), stable disease (NS), or progression (NP). For marker identification, the three response classes were further grouped into responders vs. non-responders (stable and progression) (NP+S), responders vs. progression, or progression vs. others (stable and responders) (NR+S). The analyses further separated the patients based on the treatment they received. […] Thus, the responder vs. non-responder analysis utilizes 79 vs. 84 samples. The responder vs. progression analysis utilizes 79 vs. 41 and the progression vs. other analysis utilizes 41 vs. 122 samples. For the dexamethasone analysis NR=25, NS=16, and NP=21. Accordingly, the responder vs. non-responder analysis utilizes 25 vs. 37 samples. The responder vs. progression analysis utilizes 25 vs. 21 and the progression vs. other analysis utilizes 21 vs. 41 samples.

[2] = system: relapsed multiple myeloma; details: cited from earlier work
multiple myeloma [3] = details: bortezomib alone, cited from earlier work

In the case of `C[C@@H]1C[C@H]2[C@@H]3CCC4=CC(=O)C=C[C@]4(C)[C@@]3(F)[C@@H](O)C[C@]2(C)[C@@]1(O)C(=O)CO` [dexamethasone], the “NP, number of patients classified as progression” value (multiple myeloma [1]) was 21, the “NR, number of patients classified as responder” value (multiple myeloma [1]) was 25 and the “NS, number of patients classified as stable disease” value (multiple myeloma [1]) was 16.

With `CC(C)C[C@H](NC(=O)[C@H](Cc1ccccc1)NC(=O)c1cnccn1)B(O)O` [bortezomib, N-pyrazinecarbonyl-L-phenylalanine-L-leucineboronic acid] the “CR, number of patients” value (multiple myeloma [1]; Study 024) was 1, the “IE, number of patients” value (multiple myeloma [1]; Study 024) was 0 and the “MR, number of patients” value (multiple myeloma [1]; Study 024) was 0. For the same molecule, the “NC, number of patients” value (multiple myeloma [1]; Study 024) was 1, the “PD, number of patients” value (multiple myeloma [1]; Study 024) was 4 and the “PR, number of patients” value (multiple myeloma [1]; Study 024) was 1. The “CR, number of patients” value (multiple myeloma [1]; Study 025) was 2, the “IE, number of patients” value (multiple myeloma [1]; Study 025) was 5 and the “MR, number of patients” value (multiple myeloma [1]; Study 025) was 3. For the same molecule, the “NC, number of patients” value (multiple myeloma [1]; Study 025) was 10, the “PD, number of patients” value (multiple myeloma [1]; Study 025) was 14 and the “PR, number of patients” value (multiple myeloma [1]; Study 025) was 10. For the same molecule, the “CR, number of patients” value (multiple myeloma [1]; Study 040) was 1, the “IE, number of patients” value (multiple myeloma [1]; Study 040) was 2 and the “MR, number of patients” value (multiple myeloma [1]; Study 040) was 6. For the same molecule, the “NC, number of patients” value (multiple myeloma [1]; Study 040) was 13, the “PD, number of patients” value (multiple myeloma [1]; Study 040) was 8 and the “PR, number of patients” value (multiple myeloma [1]; Study 040) was 20. The “NP, number of patients classified as progression” value (multiple myeloma [1]) was 41, the “NR, number of patients classified as responder” value (multiple myeloma [1]) was 79 and the “NS, number of patients classified as stable disease” value (multiple myeloma [1]) was 43. The “CR+PR rate” value (multiple myeloma [1]; pharmacogenomic patient set) was 35%, the overall response rate (multiple myeloma [1]; pharmacogenomic patient set) was 46.4% and the “CR+PR rate” value ([2]; bortezomib 1.0 mg/m^2) was 30%. The “CR+PR rate” value ([2]; bortezomib 1.3 mg/m^2) was 38%, the “CR+PR rate” value (multiple myeloma [3]; 53 of 193 patients) was 27% and the “overall response rate (CR+PR+MR)” value (multiple myeloma [3]; 67 of 193 patients) was 35%.
